Results published in patent US6083920A, “Compositions for modulating intracellular inositol trisphosphate concentration” (priority 1996, dated 2000).

Key:
[1] = system: InsP3 signalling in primary chick cortical neurons; assay: Phosphoinositide hydrolysis assay (InsP3 signalling) in cultured primary cortical neurons; format: cell-based; conditions: for inhibitory effect on InsP3 enhancement caused by sphingosine or metabotropic glutamate receptor agonists: cortical neurons
Method: Primary cultures of neurons were prepared from the telencephalon of white Leghorn chick embryos on the eighth day of their development (Rosenberg et al., J.Biol. Chem. 267:10601-10612, 1992). The neurons were seeded in 24-well plastic tissue culture plates that had been coated with L-polylysine. The density of the neurons was 10^5 cells per well, and they were cultured in Dulbecco's modified Eagle's medium/Ham's high glucose F-12 medium (1:1, vol:vol) containing 500 ng/L sodium selenite, 500 μg/L transferrin, and 165 pmole/L EGF. The cultures were maintained at 37° C. under 5% CO2 in air for 4 days, by which time the cells had differentiated into neurite-bearing cortical granulocytic neurons. These cultures of mature embryonic neurons were used for phosphoinositide hydrolysis assays (as described in Example 2).
Receptor-stimulated and basal unstimulated hydrolysis of phosphoinositides was measured by the following procedure. In order to label the cellular phosphoinositides metabolically, the primary cultures of chick cortical neurons (described in Example 1) were incubated overnight with 0.5 ml Dulbecco's modified Eagle's medium containing 1 μCi [^3 H]myo-inositol per well. The cells were then washed twice with 1 ml Dulbecco's phosphate-buffered saline (PBS) and 0.5 ml of PBS containing 4.5 g/L glucose was added. Sphingosine, psychosine, lysosulphatide, or lysosphingomyelin, prepared as the hydrochloride salt dissolved in water, were then added to produce the desired extracellular concentration in specific wells, […] The cells were then washed twice with 1 ml PBS, and pre-incubated for 15 minutes at 37° C. with 0.5 ml PBS containing 10 mM LiCl and the compound to be tested was added. […] The tubes were vortexed thoroughly, then centrifuged at 500×g for 5 minutes to separate the aqueous and chloroform phases. For each sample, a 1.5-ml aliquot of the upper (aqueous) phase was applied to a small column containing BioRad AG1X8 resin (formate form). Free [^3 H]inositol and [^3 H]glycerophosphoinositol were washed through the column with 5 ml of a solution containing 5 mM sodium borate and 60 mM sodium formate. The total phosphorylated [^3 H] inositol fraction was eluted from the column for radiometric scintillation spectrometry analysis with 3 ml 1.0 M ammonium formate/0.1 M formic acid;
(§1) In addition, a 0.5 ml aliquot of the lower (chloroform) phase of each sample was analyzed radiometrically by scintillation spectrometry in order to determine the quantity of lipid-bound [^3 H]myo-inositol. Estimation of phosphoinositide hydrolysis by phospholipase C is based upon the quantity of [^3 H]inositol phosphates produced, and is expressed as the percentage of the latter relative to total free and componential [^3 H]inositol (dpm ammonium formate+dpm chloroform fractions).
Cultured primary chick cortical neurons that were prelabeled with [^3 H]myo-inositol were examined for enhanced InsP3 signalling in response to various agonists including glutamate, aspartate, and the metabotropic […] receptor agonists ibotenate and quisqualate.

[2] = system: bradykinin-stimulated phosphoinositide signalling in PC12 cells; assay: Phosphoinositide hydrolysis assay (InsP3 production) in PC12 cells; format: cell-based, rat; conditions: for sensitivity of PC12 cells to bradykinin: at relatively moderate levels
Excerpt: PC12 cells, from a rat adrenal pheochromocytoma cell line, were used as a model of neurons from the peripheral nervous system. These cells were obtained from a common laboratory cell culture stock and grown in plastic culture flasks in Dulbecco's modified Eagle's medium (DMEM) supplemented with 5% heat-inactivated horse serum and 10% heat-inactivated fetal calf serum (PC12 cells are also available from the American Type Culture Collection under the Accession number CRL 1721). The cells were grown at 37° C. in 5% CO2 in air until a confluent monolayer formed. The cells were dispersed into 24-well plastic tissue culture plates at a density of 10^5 cells per well and used for the phosphoinositide hydrolysis assays (as described in EXAMPLE 2).
Receptor-stimulated and basal unstimulated hydrolysis of phosphoinositides was measured by the following procedure. In order to label the cellular phosphoinositides metabolically, the primary cultures of chick cortical neurons (described in Example 1) were incubated overnight with 0.5 ml Dulbecco's modified Eagle's medium containing 1 μCi [^3 H]myo-inositol per well. The cells were then washed twice with 1 ml Dulbecco's phosphate-buffered saline (PBS) and 0.5 ml of PBS containing 4.5 g/L glucose was added. Sphingosine, psychosine, lysosulphatide, or lysosphingomyelin, prepared as the hydrochloride salt dissolved in water, were then added to produce the desired extracellular concentration in specific wells, and the 24-well plates were swirled gently on a rotary shaker for 1 hr at 23° C. The cells were then washed twice with 1 ml PBS, and pre-incubated for 15 minutes at 37° C. with 0.5 ml PBS containing 10 mM LiCl and the compound to be tested was added. After 30 minutes, the experiment was terminated by adding 1 ml of ice-cold methanol to each well and transferring the material in each well to polypropylene tubes that contained 0.4 ml water and 1 ml chloroform. The tubes were vortexed thoroughly, then centrifuged at 500×g for 5 minutes to separate the aqueous and chloroform phases. For each sample, a 1.5-ml aliquot of the upper (aqueous) phase was applied to a small column containing BioRad AG1X8 resin (formate form). Free [^3 H]inositol and [^3 H]glycerophosphoinositol were washed through the column with 5 ml of a solution containing 5 mM sodium borate and 60 mM sodium formate. The total phosphorylated [^3 H] inositol fraction was eluted from the column for radiometric scintillation spectrometry analysis with 3 ml 1.0 M ammonium formate/0.1 M formic acid;
as §1
PC12 cells display a strong phospholipase C-linked metabotropic receptor response to bradykinin, an effective pain producing agonist.
The degree of InsP3 inhibition is a function of the log of the psychosine concentration for a fixed time of exposure (FIG. 4). Exposing PC12 cells to 50 μM exogenous psychosine for 30 minutes was sufficient to reduce a metabotropic response to 10 μM bradykinin to half maximum.

| Compound | InsP3 production ([2]; PC12 cells) | sensitivity of PC12 cells to bradykinin [2] | inhibitory effect on InsP3 enhancement caused by sphingosine or metabotropic glutamate receptor agonists [1] | other results |
| --- | --- | --- | --- | --- |
| N[C@@H](Cn1oc(=O)[nH]c1=O)C(=O)O [Quisqualate, quisqualate] |  |  |  | Ins-P-n, modulator Lsm:Sph ([1]; 20 μM Lysosphingomyelin + 20 μM Sphingosine, then 100 μM agonist 20 min, normalized to control = 1.00): 2.25 ± 0.15; Ins-P-n, modulator Psy:Sph ([1]; 20 μM Psychosine + 20 μM Sphingosine, then 100 μM agonist 20 min, normalized to control = 1.00): 3.30 ± 0.25; fold induction at 100 µM ([1]; Gallus gallus, Cortical neurone, 20 min, read-out: Ins-P-n (agonist alone)): 3 ± 0.05 |
| CCCCCCCCCCCCC/C=C/[C@@H](O)[C@@H](N)COP(=O)([O-])OCC[N+](C)(C)C [lysosphingomyelin, sphingosyl phosphoryicholine] | strongly inhibit | can entirely block | blocked this enhancement |  |
| CCCCCCCCCCCCC/C=C/[C@@H](O)[C@@H](N)CO [sphingosine] |  |  |  | basal, unstimulated level of InsP3 production ([2]; PC12 cells): tonically upregulated; basal, unstimulated InsP3 level in cortical neurons [1]: tonically enhanced |
| CCCCCCCCCCCCC/C=C/[C@@H](O)[C@@H](N)CO[C@@H]1O[C@H](CO)[C@H](O)[C@H](O)[C@H]1O [psychosine, lysocerebroside] | strongly inhibit | can entirely block | blocked this enhancement | IC50 ([2]; PC12 cells, 30 minutes exposure, 10 μM bradykinin, read-out: exogenous concentration reducing metabotropic response to bradykinin to half maximum): 50 µM |
